The structures appear in SMILES notation.

For one experiment, the target named is T1, human CYP4F2 (Homo sapiens, UniProt P78329).
T1 construct: host or cells: Escherichia coli (membrane fraction)
T1 sequence (P78329 5-520): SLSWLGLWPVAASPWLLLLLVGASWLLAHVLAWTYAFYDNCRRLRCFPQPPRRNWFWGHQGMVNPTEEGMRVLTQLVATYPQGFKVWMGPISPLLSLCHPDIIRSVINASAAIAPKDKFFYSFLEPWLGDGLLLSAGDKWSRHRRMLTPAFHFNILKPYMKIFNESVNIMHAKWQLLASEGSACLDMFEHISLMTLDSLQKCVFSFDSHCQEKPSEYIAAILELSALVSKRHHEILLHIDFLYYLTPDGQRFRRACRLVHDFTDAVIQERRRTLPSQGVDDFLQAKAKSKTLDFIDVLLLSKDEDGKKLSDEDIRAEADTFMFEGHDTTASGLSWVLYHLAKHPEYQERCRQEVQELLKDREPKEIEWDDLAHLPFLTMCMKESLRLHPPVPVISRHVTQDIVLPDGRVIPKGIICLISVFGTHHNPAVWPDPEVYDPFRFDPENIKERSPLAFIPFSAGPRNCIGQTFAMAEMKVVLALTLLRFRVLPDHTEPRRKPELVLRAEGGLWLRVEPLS
The experiment can be described thus: CYP4F2 inhibition test (Test Example 1). The class given is biochemical. As to conditions: Escherichia coli membrane fraction expressing human CYP4F2, 2.5 μM luciferine derivative, room temperature 60 minutes, luminescence. On the procedure:
(§1) (1) Inhibition Test for Each Compound of the Present Invention Against 20-HETE Producing Enzymes (CYP4F2 and CYP4A11)
(§2) In the CYP4F2 inhibition test, the reaction solution containing each compound [final concentration of 50 mM, KPO4 (pH 7.4), 2.5 μM, luciferine derivative and 1 mM NADPH] was added to an Escherichia coli membrane fraction (100 μg/mL, protein) in which human CYP4F2 had been expressed. In the CYP4A11 inhibition test, the reaction solution containing each compound [final concentration of 100 mM, Tris-HCl (pH 7.5), 60 μM, luciferine derivative, 1.3 mM NADP^+, 3.3 mM Glucose 6-Phosphate, 3.3 mM MgCl2 and 0.4 U/mL Glucose 6-Phosphate dehydrogenase] was added to an Escherichia coli membrane fraction (100 μg/mL, protein) in which human CYP4A11 had been expressed. Following this, the membrane fraction was left to stand at room temperature for 60 minutes to perform an enzymatic reaction. After the reaction, a luciferine detection reagent was added, and the luminescence value was measured using a plate reader.
(§3) A: Luminescence value with addition of compound
(§4) B: Luminescence value without addition of compound and enzyme
(§5) C: Luminescence value without addition of compound

For the next experiment, the target named is T2, human CYP4A11 (Homo sapiens, UniProt Q02928).
T2 construct: host or cells: Escherichia coli (membrane fraction)
T2 sequence (Q02928 5-519): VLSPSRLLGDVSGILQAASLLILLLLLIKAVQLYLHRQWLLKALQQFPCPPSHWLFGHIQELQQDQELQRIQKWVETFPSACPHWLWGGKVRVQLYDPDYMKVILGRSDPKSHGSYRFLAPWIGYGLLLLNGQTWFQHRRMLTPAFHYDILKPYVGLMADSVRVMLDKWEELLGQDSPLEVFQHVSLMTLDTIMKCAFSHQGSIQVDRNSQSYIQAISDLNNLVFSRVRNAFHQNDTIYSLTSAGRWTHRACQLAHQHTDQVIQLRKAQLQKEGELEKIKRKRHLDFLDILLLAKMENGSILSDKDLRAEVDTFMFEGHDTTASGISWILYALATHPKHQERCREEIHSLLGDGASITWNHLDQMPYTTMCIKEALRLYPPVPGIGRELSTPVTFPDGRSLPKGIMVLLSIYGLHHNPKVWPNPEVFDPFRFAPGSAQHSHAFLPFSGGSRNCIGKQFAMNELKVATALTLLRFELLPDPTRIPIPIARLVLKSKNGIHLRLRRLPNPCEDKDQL
The experiment is described as follows: CYP4A11 inhibition test (Test Example 1). The class given is biochemical. As to conditions: Escherichia coli membrane fraction expressing human CYP4A11, 60 μM luciferine derivative, room temperature 60 minutes, luminescence. How it is done: as §1, §2, §3, §4, §5

In general, IC50 refers to the concentration that inhibits the measured activity by half. With `CC(C)OC(=O)NCCS(=O)(=O)N1CCC[C@H](COc2ccc(-c3ccn[nH]3)nc2)C1` [Example 1-21], the results for the IC50 against human CYP4F2 and at human CYP4A11 were 0.018 µM and 0.032 µM, respectively.
With `CCOC(=O)NCCS(=O)(=O)N1CCC[C@H](COc2ccc(-c3ccn[nH]3)nc2)C1` [Example 1-22], the IC50 is 0.037 µM at human CYP4F2 and 0.044 µM against human CYP4A11.
`CC(C)OC(=O)NCCS(=O)(=O)N1CCC[C@@H](COc2ccc(-c3ccn[nH]3)nc2)C1` [Example 1-23]: the IC50 at human CYP4F2 and against human CYP4A11 was 0.026 µM throughout.
Turning to `CCOC(=O)NCCS(=O)(=O)N1CCC[C@@H](COc2ccc(-c3ccn[nH]3)nc2)C1` [Example 1-24], the IC50 is 0.04 µM against human CYP4F2 and 0.035 µM against human CYP4A11.
As to `CN(C)S(=O)(=O)N1CC(COc2ccc(-c3ccn[nH]3)nc2)C1` [Example 1-25], the IC50 against human CYP4F2 was determined as 0.64 µM; at human CYP4A11, 1.6 µM.
On to `CC(C)S(=O)(=O)N1CC(COc2ccc(-c3ccn[nH]3)nc2)C1` [Example 1-26], for which the IC50 on human CYP4F2 was 0.093 µM; on human CYP4A11, 2.3 µM.
Take `CC(C)OC(=O)N1CCC(CCOc2ccc(-c3ccn[nH]3)nc2)CC1` [Example 1-29, Propan-2-yl 4-(2-{[6-(1H-pyrazol-5-yl)pyridin-3-yl]oxy}ethyl)piperidin-1-carboxylate]: the IC50 turned out to be 0.085 µM against human CYP4F2 and 0.19 µM on human CYP4A11.
Take `CC(C)COC(=O)N1CCC(CCOc2ccc(-c3ccn[nH]3)nc2)CC1` [Example 1-30]: the IC50 at human CYP4F2 was 0.011 µM; against human CYP4A11, 0.11 µM.
The like results for `CC(C)OC(=O)NCCC(=O)N1CCC[C@@H](COc2ccc(-c3ccn[nH]3)nc2)C1` [Example 1-32] were, in that order, 0.027 µM and 0.067 µM.
On the same counts, the results for `CCOC(=O)NCCC(=O)N1CCC[C@@H](COc2ccc(-c3ccn[nH]3)nc2)C1` [Example 1-33] are 0.054 µM and 0.083 µM.
In the case of `COCCOC(=O)NCCC(=O)N1CCC[C@@H](COc2ccc(-c3ccn[nH]3)nc2)C1` [Example 1-34], the figures for the IC50 on human CYP4F2 and on human CYP4A11 were 0.079 µM and 0.31 µM, respectively.
With `CN(C)C(=O)NCCC(=O)N1CCC[C@@H](COc2ccc(-c3ccn[nH]3)nc2)C1` [Example 1-35], the IC50 is 0.32 µM against human CYP4F2 and 0.89 µM against human CYP4A11.
In the case of `CC(=O)NCCC(=O)N1CCC[C@@H](COc2ccc(-c3ccn[nH]3)nc2)C1` [Example 1-36], the IC50 was determined as 0.68 µM at human CYP4F2 and 0.64 µM on human CYP4A11.
On the same counts, the results for `O=C(NCCC(=O)N1CCC[C@@H](COc2ccc(-c3ccn[nH]3)nc2)C1)C1CC1` [Example 1-37] are 0.12 µM and 0.16 µM.
The like results for `CCOC(=O)N[C@H]1C[C@H](C(=O)N2CCC[C@@H](COc3ccc(-c4ccn[nH]4)nc3)C2)C1` [Example 1-38] were, in that order, 0.0062 µM and 0.18 µM.
The like results for `CCOC(=O)N[C@H]1C[C@@H](C(=O)N2CCC[C@@H](COc3ccc(-c4ccn[nH]4)nc3)C2)C1` [Example 1-39] were, in that order, 0.011 µM and 0.27 µM.
On to `CC1(C(=O)N2CCC(COc3ccc(-c4ccn[nH]4)nc3)CC2)CC1` [Example 2-1, (1-Methylcyclopropyl) [4-({[6-(1H-pyrazol-5-yl)pyridin-3-yl]oxy}methyl)piperidin-1-yl]methanone], for which the IC50 was 0.83 µM against human CYP4F2 and 1.1 µM against human CYP4A11.
The like results for `O=C(CC1CC1)N1CCC(COc2ccc(-c3ccn[nH]3)nc2)CC1` [Example 2-2] were, in that order, 0.078 µM and 0.93 µM.
For `O=C(C1CCC1)N1CCC(COc2ccc(-c3ccn[nH]3)nc2)CC1` [Example 2-3], the IC50 came out at 0.076 µM against human CYP4F2 and 0.36 µM on human CYP4A11.
`O=C(C1CC(F)(F)C1)N1CCC(COc2ccc(-c3ccn[nH]3)nc2)CC1` [Example 2-4]: the IC50 on human CYP4F2 was found to be 0.094 µM; against human CYP4A11 it was 1.1 µM.
Consider `CC1(C(=O)N2CCC(COc3ccc(-c4ccn[nH]4)nc3)CC2)COC1` [Example 2-5], for which the IC50 at human CYP4F2 was 0.81 µM; against human CYP4A11, 1.6 µM.
With `COCCC(=O)N1CCC(COc2ccc(-c3ccn[nH]3)nc2)CC1` [Example 2-6], the IC50 came out at 0.29 µM against human CYP4F2 and 2.9 µM at human CYP4A11.
Turning to `O=C([C@H]1CC[C@@H](O)CC1)N1CCC(COc2ccc(-c3ccn[nH]3)nc2)CC1` [Example 2-7], the IC50 was 0.44 µM against human CYP4F2 and 5.3 µM against human CYP4A11.
`O=C(C1CCOCC1)N1CCC(COc2ccc(-c3ccn[nH]3)nc2)CC1` [Example 2-8]: the figures for the IC50 against human CYP4F2 and against human CYP4A11 were 0.29 µM and 5.7 µM, respectively.
Take `O=C(CCO)N1CCC(COc2ccc(-c3ccn[nH]3)nc2)CC1` [Example 2-9]: the IC50 came out at 0.44 µM on human CYP4F2 and 3.8 µM at human CYP4A11.
The like results for `O=C(N1CCC(COc2ccc(-c3ccn[nH]3)nc2)CC1)C1(O)CC1` [Example 2-10] were, in that order, 0.4 µM and 1.1 µM.
On the same counts, the results for `CN(CCC(=O)N1CCC[C@@H](COc2ccc(-c3ccn[nH]3)nc2)C1)C(=O)OC(C)(C)C` [Example 2-11, tert-Butyl methyl {3-oxo-3-[(3R)-3-({[6-(1H-pyrazol-5-yl)pyridin-3-yl]oxy}methyl)piperidin-1-yl]propyl}carbamate] are 0.0095 µM and 0.35 µM.
The like results for `C[C@H](CNC(=O)OC(C)(C)C)C(=O)N1CCC[C@@H](COc2ccc(-c3ccn[nH]3)nc2)C1` [Example 2-12] were, in that order, 0.023 µM and 0.54 µM.
For the compound `C[C@@H](CNC(=O)OC(C)(C)C)C(=O)N1CCC[C@@H](COc2ccc(-c3ccn[nH]3)nc2)C1` [Example 2-13], the figures for the IC50 on human CYP4F2 and against human CYP4A11 were 0.073 µM and 0.1 µM, respectively.
As to `C[C@@H](CC(=O)N1CCC[C@@H](COc2ccc(-c3ccn[nH]3)nc2)C1)NC(=O)OC(C)(C)C` [Example 2-14], the figures for the IC50 against human CYP4F2 and against human CYP4A11 were 0.029 µM and 0.077 µM, respectively.
The like results for `CN(C)C(=O)CC(=O)N1CCC[C@@H](COc2ccc(-c3ccn[nH]3)nc2)C1` [Example 2-15] were, in that order, 12 µM and 5.8 µM.
For the compound `O=C(CC(=O)N1CCC[C@@H](COc2ccc(-c3ccn[nH]3)nc2)C1)N1CCCC1` [Example 2-16], the IC50 worked out at 3.6 µM against human CYP4F2 and 7.6 µM on human CYP4A11.
On the same counts, the results for `CCCCNC(=O)CC(=O)N1CCC[C@@H](COc2ccc(-c3ccn[nH]3)nc2)C1` [Example 2-17] are 0.48 µM and 0.27 µM.
Consider `CC(C)NC(=O)CC(=O)N1CCC[C@@H](COc2ccc(-c3ccn[nH]3)nc2)C1` [Example 2-18], for which the IC50 at human CYP4F2 was determined as 2.9 µM; at human CYP4A11 it was 1.8 µM.
With `O=C([C@H]1CC[C@H](O)CC1)N1CCC[C@@H](COc2ccc(-c3ccn[nH]3)nc2)C1` [Example 3-2, (4-Hydroxycyclohexyl)-((3R)-3-{[6-(1H-pyrazol-5-yl)pyridin-3-yl]oxymethyl}piperidin-1-yl)methanone], the IC50 on human CYP4F2 came out at 2 µM; on human CYP4A11 it was 2.6 µM.
On the same counts, the results for `O=C([C@H]1CC[C@@H](O)CC1)N1CCC[C@@H](COc2ccc(-c3ccn[nH]3)nc2)C1` [Example 3-3, (4-Hydroxycyclohexyl)-((3R)-3-{[6-(1H-pyrazol-5-yl)pyridin-3-yl]oxymethyl}piperidin-1-yl)methanone] are 0.79 µM and 1.7 µM.
On the same counts, the results for `CS(=O)(=O)CC(=O)N1CCC[C@@H](COc2ccc(-c3ccn[nH]3)nc2)C1` [Example 3-4] are 4.2 µM and 0.5 µM.

(Values after US20210040062A1, “AZOLE-SUBSTITUTED PYRIDINE COMPOUND” (TAISHO PHARMACEUTICAL CO., LTD., priority 2016, published 2021).)
